# Results published in article PMC10706475 (International Journal of Molecular Sciences, 2023).
# Values joined by “and” are separate entries in the source; they are usually repeats but may differ in a detail not shown here. Equal values may be shown once. Read-outs that look alike come from different tables or passages of the source.
# What was measured:
# [1] = in vivo activity (i.p.), test not specified; details: 100 and 300 mg/kg (i.p.); test not named
# Method: Sodium metavanadate (NaO3V) (Sigma, St. Louis, MO, USA) was utilized in this study. Novel NMDA-Receptor antagonist, ZA-II-05, is a bicyclic aryl cyclohexylamine, designed and synthesized in our lab, fully active at 100 and 300 mg/kg (i.p.). Several tests established the safety of the compound at dosages envisioned in this study.
# [2] = biological target: T1, Dopamine Transporter (DAT) (Homo sapiens, UniProt Q01959); experiment: radioligand binding, Dopamine Transporter; details: [3H] WIN35428, cloned human transporter
# T1 construct: expressed in transfected cells
# [3] = biological target: T2, Sigma2 (Rattus norvegicus, UniProt Q5U3Y7); experiment: radioligand binding, Sigma2
# T2 construct: Sigma2; DTG; Rat; PC12; endogenous in cells; host or cells: PC12
# [4] = system: Non-protein thiol (NPT); assay type: in vivo, mice
# [5] = system: organotypic rat hippocampal slices; assay type: cell-based
# [6] = biological target: T3, κ-opioid receptors (KOR) (Rattus norvegicus, UniProt P34975); experiment: biochemical; assay type: binding; details: read-out: κ-Opiod Receptor Ki
# T3 construct: expressed in transfected cells
# [7] = system: total thiol (PT); assay type: in vivo, mice
# [8] = biological target: T4, Norepinephrine Transporter (NET) (Homo sapiens, UniProt P23975); experiment: radioligand binding, Norepinephrine Transporter; details: [3H] Nisoxetine, cloned human transporter; read-out: NET binding affinity (Ki)
# T4 construct: expressed in transfected cells
# [9] = biological target: T5, D2 (Homo sapiens, UniProt P14416); experiment: radioligand binding, D2; details: [3H] N-Methylspiperone, cloned human receptor; read-out: D2 binding affinity (Ki)
# T5 construct: expressed in transfected cells
# [10] = biological target: T6, Serotonin Transporter (SERT) (Homo sapiens, UniProt P31645); experiment: radioligand binding, Serotonin Transporter; details: [3H] Citalopram, cloned human transporter; read-out: SERT binding affinity (Ki)
# T6 construct: expressed in transfected cells
# [11] = system: dendritic density and arborizations; assay type: in vivo, mice; details: coadministration of ZA-II-05 with […], vs […]-treated group
# [12] = system: IBA1; assay type: in vivo, mice; details: ZA-II-05 treated groups vs […] group
# [13] = biological target: GluN1/GluN2A (Rattus norvegicus, UniProt P35439+Q00959); experiment: [3H] MK801 binding assay, transfected HEK293 cells, GluN1/GluN2A
# [14] = system: Myelin Basic Protein (MBP); parameters: species or system mice; details: mouse, in vivo
# [15] = system: tumor necrosis factor-alpha (TNF-α)
# [16] = system: Vitamin C; assay type: in vivo, mice
# [17] = system: H2O2; parameters: species or system mice; details: mouse, in vivo
# [18] = system: nitric oxide (NO); assay type: in vivo, mice
# [19] = system: GFAP; parameters: species or system mice; details: mouse, in vivo
# [20] = biological target: T7, µ-opioid receptors (MOR) (Homo sapiens, UniProt P35372); experiment: radioligand binding, µ-opioid receptor; details: read-out: μ-Opiod Receptor Ki
# T7 construct: expressed in transfected cells
# [21] = biological target: T8, Sigma1 (Rattus norvegicus, UniProt Q9R0C9); experiment: radioligand binding, Sigma1; details: [3H] Pentazocine (+), rat brain; read-out: Sigma 1 binding affinity (Ki)
# T8 construct: Sigma1; Pentazocine (+); Rat; Brain; from tissue; host or cells: rat brain
# [22] = system: NeuN; assay type: in vivo, mice
# [23] = biological target: T9, Dopamine 1 (D1) (Homo sapiens, UniProt P21728); experiment: radioligand binding, Dopamine 1 (D1); details: [3H] SCH23390, cloned human receptor; read-out: D1 binding affinity (Ki)
# T9 construct: expressed in transfected cells
# [24] = biological target: T10, 5-HT2A (Homo sapiens, UniProt P28223); experiment: radioligand binding, 5-HT2A; details: [3H] Ketanserin, cloned human receptor; read-out: 5HT2A binding affinity (Ki)
# T10 construct: expressed in transfected cells
# [25] = locomotion and motor coordination; assay type: in vivo, mice; details: treatment with ZA-II-05 in vanadium-induced neurotoxicity
# [26] = ZA-II-05 only 100 mg/kg i.p. every 72 h, one month, mouse brain
# T5 sequence (P14416 whole entry): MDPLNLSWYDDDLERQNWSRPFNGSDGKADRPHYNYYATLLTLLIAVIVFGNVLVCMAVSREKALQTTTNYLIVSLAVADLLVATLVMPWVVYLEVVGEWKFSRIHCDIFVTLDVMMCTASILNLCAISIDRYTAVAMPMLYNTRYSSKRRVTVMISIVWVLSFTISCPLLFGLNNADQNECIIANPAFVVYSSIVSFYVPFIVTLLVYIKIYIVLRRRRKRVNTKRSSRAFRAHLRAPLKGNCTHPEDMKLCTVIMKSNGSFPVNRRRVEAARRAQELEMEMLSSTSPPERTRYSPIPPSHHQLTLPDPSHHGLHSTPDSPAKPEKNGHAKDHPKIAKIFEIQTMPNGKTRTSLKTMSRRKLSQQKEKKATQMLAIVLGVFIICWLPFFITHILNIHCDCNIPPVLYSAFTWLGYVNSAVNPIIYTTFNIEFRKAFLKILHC
# T2 sequence (Q5U3Y7 whole entry): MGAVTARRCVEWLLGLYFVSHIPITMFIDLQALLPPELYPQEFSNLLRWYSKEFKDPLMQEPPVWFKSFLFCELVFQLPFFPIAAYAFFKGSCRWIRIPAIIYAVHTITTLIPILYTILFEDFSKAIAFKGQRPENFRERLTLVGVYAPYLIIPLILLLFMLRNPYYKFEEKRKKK
# T1 sequence (Q01959 whole entry): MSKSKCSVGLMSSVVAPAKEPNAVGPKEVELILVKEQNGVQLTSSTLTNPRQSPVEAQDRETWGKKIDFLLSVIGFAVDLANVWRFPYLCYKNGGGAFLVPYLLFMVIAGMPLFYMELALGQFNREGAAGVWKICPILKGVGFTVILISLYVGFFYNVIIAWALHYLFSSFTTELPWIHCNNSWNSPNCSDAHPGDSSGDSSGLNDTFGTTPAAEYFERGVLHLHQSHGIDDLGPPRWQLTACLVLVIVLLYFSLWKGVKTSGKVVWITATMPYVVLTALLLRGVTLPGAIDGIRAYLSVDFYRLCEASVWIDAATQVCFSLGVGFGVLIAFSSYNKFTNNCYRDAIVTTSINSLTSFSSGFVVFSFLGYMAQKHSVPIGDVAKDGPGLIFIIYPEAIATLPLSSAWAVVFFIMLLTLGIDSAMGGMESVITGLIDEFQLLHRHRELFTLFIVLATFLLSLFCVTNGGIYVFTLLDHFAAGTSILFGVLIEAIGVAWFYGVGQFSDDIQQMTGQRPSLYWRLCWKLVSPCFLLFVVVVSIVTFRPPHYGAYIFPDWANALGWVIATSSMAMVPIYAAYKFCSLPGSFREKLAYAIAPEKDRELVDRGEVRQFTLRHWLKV
# T6 sequence (P31645 whole entry): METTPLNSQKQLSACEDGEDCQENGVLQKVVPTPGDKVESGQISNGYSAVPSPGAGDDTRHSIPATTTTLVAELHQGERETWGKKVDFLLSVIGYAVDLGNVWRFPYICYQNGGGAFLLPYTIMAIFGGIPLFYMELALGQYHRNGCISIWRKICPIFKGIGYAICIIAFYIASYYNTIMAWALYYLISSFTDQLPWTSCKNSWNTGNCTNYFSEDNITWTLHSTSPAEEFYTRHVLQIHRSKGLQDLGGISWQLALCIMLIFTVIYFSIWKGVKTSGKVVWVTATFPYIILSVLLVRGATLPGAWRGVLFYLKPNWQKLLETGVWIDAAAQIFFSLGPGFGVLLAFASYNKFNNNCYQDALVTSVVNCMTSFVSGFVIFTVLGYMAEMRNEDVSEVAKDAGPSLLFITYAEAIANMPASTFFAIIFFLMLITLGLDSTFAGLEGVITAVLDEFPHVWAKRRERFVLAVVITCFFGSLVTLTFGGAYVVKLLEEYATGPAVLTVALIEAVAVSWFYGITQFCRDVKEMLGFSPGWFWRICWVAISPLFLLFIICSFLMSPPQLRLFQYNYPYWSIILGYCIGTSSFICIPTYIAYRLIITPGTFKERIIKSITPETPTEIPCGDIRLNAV
# T9 sequence (P21728 whole entry): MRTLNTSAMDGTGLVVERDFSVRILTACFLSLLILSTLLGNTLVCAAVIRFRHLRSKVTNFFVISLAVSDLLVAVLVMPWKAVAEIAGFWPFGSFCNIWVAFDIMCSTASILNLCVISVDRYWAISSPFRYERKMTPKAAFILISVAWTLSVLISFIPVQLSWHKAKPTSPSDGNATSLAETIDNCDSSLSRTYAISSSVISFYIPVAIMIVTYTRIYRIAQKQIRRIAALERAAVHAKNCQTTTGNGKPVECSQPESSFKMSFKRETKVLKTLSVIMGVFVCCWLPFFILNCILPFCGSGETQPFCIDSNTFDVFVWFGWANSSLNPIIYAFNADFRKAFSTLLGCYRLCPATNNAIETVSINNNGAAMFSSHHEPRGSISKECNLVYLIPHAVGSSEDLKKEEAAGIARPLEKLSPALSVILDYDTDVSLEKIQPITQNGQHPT
# T7 sequence (P35372 whole entry): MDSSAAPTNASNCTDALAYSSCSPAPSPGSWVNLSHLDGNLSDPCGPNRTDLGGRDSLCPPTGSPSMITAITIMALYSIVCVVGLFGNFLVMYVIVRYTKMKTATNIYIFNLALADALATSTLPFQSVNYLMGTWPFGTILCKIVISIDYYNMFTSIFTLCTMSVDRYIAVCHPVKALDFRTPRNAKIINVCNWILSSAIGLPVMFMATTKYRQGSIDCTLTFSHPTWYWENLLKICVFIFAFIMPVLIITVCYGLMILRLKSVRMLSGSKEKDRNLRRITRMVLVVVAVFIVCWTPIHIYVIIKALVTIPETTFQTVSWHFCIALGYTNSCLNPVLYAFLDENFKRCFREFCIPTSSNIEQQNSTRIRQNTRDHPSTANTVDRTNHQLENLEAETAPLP
# T10 sequence (P28223 whole entry): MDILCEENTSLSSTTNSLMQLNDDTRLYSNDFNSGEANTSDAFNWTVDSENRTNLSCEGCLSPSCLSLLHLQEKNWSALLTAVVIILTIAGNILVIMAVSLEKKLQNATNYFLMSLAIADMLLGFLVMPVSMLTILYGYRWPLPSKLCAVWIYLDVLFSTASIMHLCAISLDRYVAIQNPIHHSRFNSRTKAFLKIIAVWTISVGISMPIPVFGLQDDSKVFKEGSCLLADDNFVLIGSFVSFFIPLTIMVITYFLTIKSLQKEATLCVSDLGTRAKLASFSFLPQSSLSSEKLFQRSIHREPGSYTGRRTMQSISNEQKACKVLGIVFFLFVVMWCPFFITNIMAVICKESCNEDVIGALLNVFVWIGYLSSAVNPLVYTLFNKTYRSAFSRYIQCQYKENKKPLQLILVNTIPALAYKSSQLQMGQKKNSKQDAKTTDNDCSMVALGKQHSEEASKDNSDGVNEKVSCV
# Sequence of GluN1/GluN2A (Q00959 23-1464, other chains not shown): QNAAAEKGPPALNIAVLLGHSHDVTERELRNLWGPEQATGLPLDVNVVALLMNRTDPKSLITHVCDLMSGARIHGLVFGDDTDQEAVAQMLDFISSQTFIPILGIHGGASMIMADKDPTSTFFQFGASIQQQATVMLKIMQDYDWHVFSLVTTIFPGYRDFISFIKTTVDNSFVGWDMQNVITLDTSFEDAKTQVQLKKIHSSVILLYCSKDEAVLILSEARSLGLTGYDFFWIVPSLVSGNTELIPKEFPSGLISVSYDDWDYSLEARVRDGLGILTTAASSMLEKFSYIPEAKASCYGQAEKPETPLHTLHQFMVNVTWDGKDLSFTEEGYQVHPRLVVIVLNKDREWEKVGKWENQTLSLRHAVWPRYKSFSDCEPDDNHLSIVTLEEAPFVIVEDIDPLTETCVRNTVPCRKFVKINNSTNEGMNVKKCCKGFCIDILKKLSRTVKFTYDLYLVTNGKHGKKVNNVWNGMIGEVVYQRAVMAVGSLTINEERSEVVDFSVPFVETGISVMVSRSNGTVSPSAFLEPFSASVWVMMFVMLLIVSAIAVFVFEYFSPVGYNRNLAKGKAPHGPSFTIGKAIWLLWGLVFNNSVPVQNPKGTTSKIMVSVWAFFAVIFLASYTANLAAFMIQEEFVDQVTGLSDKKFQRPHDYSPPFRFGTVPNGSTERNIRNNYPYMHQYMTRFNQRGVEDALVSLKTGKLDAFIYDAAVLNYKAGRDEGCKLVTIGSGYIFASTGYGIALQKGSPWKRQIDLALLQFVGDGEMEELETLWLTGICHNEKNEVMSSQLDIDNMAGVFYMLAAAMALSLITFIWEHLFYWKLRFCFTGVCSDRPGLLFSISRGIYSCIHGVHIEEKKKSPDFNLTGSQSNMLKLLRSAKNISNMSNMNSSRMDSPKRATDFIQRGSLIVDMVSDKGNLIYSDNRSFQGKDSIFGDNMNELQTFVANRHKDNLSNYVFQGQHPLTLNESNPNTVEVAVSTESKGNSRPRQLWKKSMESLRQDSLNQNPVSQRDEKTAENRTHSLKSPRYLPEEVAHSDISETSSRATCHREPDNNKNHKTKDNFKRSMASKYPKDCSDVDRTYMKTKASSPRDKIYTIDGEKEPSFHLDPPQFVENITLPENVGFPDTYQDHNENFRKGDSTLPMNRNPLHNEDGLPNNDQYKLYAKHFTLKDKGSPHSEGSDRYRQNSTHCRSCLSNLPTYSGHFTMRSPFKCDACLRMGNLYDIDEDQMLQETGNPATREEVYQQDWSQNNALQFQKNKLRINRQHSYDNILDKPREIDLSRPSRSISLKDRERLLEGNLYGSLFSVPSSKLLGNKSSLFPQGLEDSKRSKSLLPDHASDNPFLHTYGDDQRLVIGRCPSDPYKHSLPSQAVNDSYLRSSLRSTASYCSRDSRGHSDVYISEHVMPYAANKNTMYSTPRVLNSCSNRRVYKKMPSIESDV
# T8 sequence (Q9R0C9 whole entry): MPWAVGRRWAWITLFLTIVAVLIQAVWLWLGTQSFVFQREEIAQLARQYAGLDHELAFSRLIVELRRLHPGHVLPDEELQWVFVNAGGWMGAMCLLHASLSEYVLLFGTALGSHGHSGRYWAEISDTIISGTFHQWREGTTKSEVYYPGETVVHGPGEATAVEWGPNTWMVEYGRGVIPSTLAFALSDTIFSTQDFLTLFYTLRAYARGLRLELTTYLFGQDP
smiles,measurement,setting,value
Fc1ccc(C2(NCCCOC3CCCCO3)CC3CCC2C3)cc1 (stereo not shown) [ZA-II-05],activity in vivo,[1],fully active
same,Ki,[2],3.16 µM
same,Ki,[3],0.0055 µM
same,NPT,[4]; [26],26.98±5.89 nmoles/mg protein
same,NPT,"[4]; mouse, in vivo",29.06±3.80 nmoles/mg protein
same,cell death in vanadium-treated hippocampal slices (propidium iodide uptake),[5],gradual reduction in cell death with increasing concentrations
same,concentration of peak protection against vanadium-induced cell death,[5],100 µM
same,Ki,[6],1.24 µM
same,THIOL,[7]; [26],28.62±6.72 nmoles/mg/protein
same,THIOL,"[7]; mouse, in vivo",25.06±4.68 nmoles/mg/protein
same,Ki,[8],> 10 µM
same,Ki,[9],> 10 µM
same,Ki,[10],> 10 µM
same,dendritic length and arborization (Golgi stain),[11],successfully reversed these dendritic changes induced by vanadium neurotoxicity
same,microglial activation (IBA1),[12],quiescence and recovery from activation
same,difference in affinity GluN1/GluN2A vs GluN1/GluN2B,[13],No significant difference in affinity
same,expression of myelin content (MBP),[14],significantly higher expression of myelin content and preservation of axonal dendritic integrity in the deep cortical layers
same,TNF-α expression,"[15]; ZA-II-05 only 100 mg/kg, all brain regions vs other groups",upregulated the expression of TNF-α significantly (p < 0.05) in all the brain regions
same,cytoplasmic TNF-α expression,[15]; […] + ZA-II-05-treated groups vs […] group,reduced cytoplasmic TNF-α expression compared to vanadium group
same,VIT. C,[16]; [26],0.17±0.02 nmoles/mg protein
same,VIT. C,"[16]; mouse, in vivo",0.20±0.04 nmoles/mg protein
same,H2O2,[17],38.89±2.67 and 46.02±0.29
same,NO,[18]; [26],0.34±0.03 μmole/mg protein
same,NO,"[18]; mouse, in vivo",0.32±0.03 μmole/mg protein
same,astrocyte reactivity (GFAP),[19],attenuation of astrocyte reactivity
same,Ki,[20],3.04 µM
same,Ki,[21],> 10 µM
same,NeuN viable cells / neuronal number,"[22]; ZA-II-05 only 100 mg/kg (ZA treatment only), CA1 and PFC",decreased viable cells in CA1 but increased neuronal number and vitality in the prefrontal cortex
same,"NeuN cellular pathology, prefrontal cortex","[22]; mouse, in vivo, 100 mg/kg",significantly less cellular pathology in the prefrontal cortex compared to the vanadium-exposed groups
same,"NeuN, loss of apical dendrites of pyramidal cells, CA1","[22]; mouse, in vivo, 100 mg/kg",reversal effect relative to the vanadium-exposed group
same,"NeuN, neuronal degeneration of pyramidal cells, CA3","[22]; mouse, in vivo, 100 mg/kg",reversal effect with reduced cellular toxicity
same,Ki,[23],> 10 µM
same,Ki,[24],> 10 µM
same,locomotion and motor coordination,[25],enhanced locomotion and improved motor coordination
